The values that follow come from US20230321186A1, “Mucin Glycans as Antifungal Agents” (Massachusetts Institute of Technology, priority 2022, published 2023).

Type in all cases: cell-based, Candida albicans
Test [1] relates to C. albicans SC5314. The test is described as follows: RT-qPCR analysis of C. albicans gene expression. As to conditions: for ECE1 expression: 0.1% and 0.4%; for YWP1 expression on concentration increase: increase to 0.4% (w/v). A general note: In qPCR the cycle at which signal appears reflects the starting amount.
In test [2] the test system is C. albicans. In words: Filamentation assay (hyphal growth, phase-contrast images). As to conditions: 0.4%, RPMI, 37° C., 8 h, vs monosaccharide pool and medium alone. The protocol: Hyphal growth of C. albicans was induced by diluting cells to OD600=0.05 into prewarmed hyphae-inducing medium as indicated and incubating at 37° C. (200 rpm) in a glass-bottom, 96-well plate. Cells were grown in hyphae-inducing medium for several hours, as described in BRIEF DESCRIPTION OF THE DRAWINGS. Images were acquired with a confocal laser scanning microscope (Zeiss, Oberkochen, Germany; LSM 800) equipped with a ×63/1.4 NA oil-immersion or a 25× objective. Images were analyzed using Zeiss ZEN v.2.1. Representative micrographs are shown.

In test [3] the test system is C. albicans SC5314. In words: RT-qPCR analysis of C. albicans gene expression. As to conditions: for YWP1 expression: 0.1% (w/v) synthetic glycan; for suppression of filamentation-associated genes: broader range of genes, six synthetic glycans, FIG. 9E; for effect of the added sugar on the gene regulatory activity (YWP1, ECE1) of the unmodified Core: compared with Core 1 or Core 2; for ECE1 transcription / YWP1 transcription: modified Core structures, FIGS. 9C-9D. As for the experimental part:
For RNA extraction from C. albicans grown in the presence or absence of mucin glycans, 100 μL of RPMI or 0.1% w/v MUC5AC glycans in RPMI were inoculated with a 1:50 dilution of an overnight culture of strain SC5314 and incubated at 37° C. for the time indicated. Total RNA was extracted with the MasterPure RNA Purification Kit (Lucigen, Middleton, WI) and residual DNA was removed using the Turbo DNA-free kit (Ambion, Austin, TX). The integrity of the total RNA was assessed using an Agilent 2100 Bioanalyzer (Agilent Technologies, Santa Clara, CA). rRNA was removed using the Ribo-Zero® rRNA Removal Kit (Yeast; Epicentre).
A list of the primers used in this study is provided in Table 1. qPCR with reverse transcription (RT-qPCR) was performed using a two-step method. First-strand cDNA was synthesized from total RNA using the […] First Strand cDNA Synthesis kit (New England Biolabs, Ipswich, MA). The cDNA was used as template for RT-qPCR using a SYBR PowerUp Master Mix kit (Applied Biosystems, Life Technologies) on a Roche LightCycler 480 real-time PCR system. The ACT1 and 18S rRNA genes were used as endogenous controls as specified. […] Changes in gene expression were calculated based on mean change in qPCR cycle threshold (ΔCt) using the ΔΔCt method (fold change=[…]).

In test [4] the test system is C. albicans. The test is described as follows: C. albicans growth (growth curves). As to conditions: 0.1% (w/v). The protocol:
Strains were maintained on yeast extract peptone dextrose (YPD) agar (2% Bacto peptone, 2% glucose, 1% yeast extract, 2% agar) and grown at 30° C. Single colonies were inoculated into YPD broth and grown with shaking overnight at 30° C. prior to each experiment. Experiments were performed with Gibco RPMI 1640 medium (Life Technologies, Carlsbad, CA; #31800-089) buffered with 165 mM 3-(N-morpholino)propanesulfonic acid (MOPS) and supplemented with 0.2% NaHCO3 and 2% glucose; YPD medium with 10% fetal bovine serum; GlcNAc medium (0.5% N-acetylglucosamine, 0.5% peptone, 0.3% KH2PO4); Spider medium (1% nutrient broth, 1% D-mannitol, 2 g K2HPO4, 50 mg/mL arginine, 10 mg/mL histidine, and 50 mg/mL tryptophan); or Lee's medium^45. Growth curves were performed in Synthetic Defined (SD)+0.004% (w/v) L-Arginine+0.0025% (w/v) L-Leucine media with 2% glucose.

Each structure is given as a SMILES string.

With `CO[C@H]1O[C@H](CO)[C@H](O)[C@H](O[C@@H]2O[C@H](CO)[C@H](O)[C@H](O)[C@H]2O)[C@H]1NC(C)=O` [Core 1, Methyl β-D-galactopyranosyl-(1→3)-2-acetamido-2-deoxy-α-D-galactopyranoside], in test [1], the ECE1 expression entry was “suppressed ECE1 expression at 0.1% and 0.4%, albeit less strongly than the mucin glycan pool”; the “YWP1 expression on concentration increase” value is given as “did not significantly alter YWP1 expression”. Further, in test [2], the “filamentation, synthetic glycan structures” value is “most potently blocked filamentation”. In test [3], the YWP1 expression entry is given as “upregulated YWP1 expression at 0.1% (w/v) to a similar degree as the intact mucin pool” and the “suppression of filamentation-associated genes” value (“suppression” for short) is listed as “strongest suppression”. Also, in test [4], the “toxic effects, as measured by C. albicans growth” value is “Neither Core 1 nor Core 2 showed toxic effects”.

With `CO[C@H]1O[C@H](CO[C@@H]2O[C@H](CO)[C@@H](O)[C@H](O)[C@H]2NC(C)=O)[C@H](O)[C@H](O[C@@H]2O[C@H](CO)[C@H](O)[C@H](O)[C@H]2O)[C@H]1NC(C)=O` [Core 2, Methyl β-D-galactopyranosyl-(1→3)-[2-acetamido-2-deoxy-β-D-glucopyranosyl-(1→6)]-2-acetamido-2-deoxy-α-D-galactopyranoside], in test [1], the ECE1 expression entry was “suppressed ECE1 expression at 0.1% and 0.4%, albeit less strongly than the mucin glycan pool”; the “YWP1 expression on concentration increase” value is recorded as “did not significantly alter YWP1 expression”. Moreover, in test [3], the YWP1 expression result is “upregulated YWP1 expression at 0.1% (w/v) to a similar degree as the intact mucin pool”. Besides, the “toxic effects, as measured by C. albicans growth” value in test [4] is listed as “Neither Core 1 nor Core 2 showed toxic effects”.

Regarding `CO[C@H]1O[C@H](CO[C@@H]2O[C@H](CO)[C@@H](O[C@@H]3O[C@H](CO)[C@H](O)[C@H](O)[C@H]3O)[C@H](O)[C@H]2NC(C)=O)[C@H](O)[C@H](O[C@@H]2O[C@H](CO)[C@H](O)[C@H](O)[C@H]2O)[C@H]1NC(C)=O` [Core 2+galactose, Methyl β-D-galactopyranosyl-(1→4)-2-acetamido-2-deoxy-β-D-glucopyranosyl-(1→6)-[β-D-galactopyranosyl-(1→3)]-2-acetamido-2-deoxy-α-D-galactopyranoside], the “filamentation, synthetic glycan structures” value in test [2] is recorded as “most potently blocked filamentation”. Moreover, in test [3], the “suppression” value is recorded as “strongest suppression”; the “effect of the added sugar on the gene regulatory activity (YWP1, ECE1) of the unmodified Core” value (“effect of the added sugar” for short) was “did not significantly alter Core 2 activity”; the ECE1 transcription entry is reported as “downregulating ECE1”; the YWP1 transcription entry is reported as “transcriptionally upregulated YWP1”.

For `CO[C@H]1O[C@H](CO)[C@H](O)[C@H](O[C@@H]2O[C@H](CO)[C@H](O)[C@H](O[C@]3(C(=O)[O-])C[C@H](O)[C@@H](NC(C)=O)[C@H]([C@H](O)[C@H](O)CO)O3)[C@H]2O)[C@H]1NC(C)=O.[Na+]` [Core 1+sialic acid, Methyl 3-O-(sodium 5-acetamido-3,5-dideoxy-D-glycero-α-D-galacto-2-nonulopyranosylonate)-β-D-galactopyranosyl-(1→3)-2-acetamido-2-deoxy-α-D-galactopyranoside], the “filamentation, synthetic glycan structures” value in test [2] is recorded as “less effective at suppressing filamentation”. For the same compound, in test [3], the “suppression” value is listed as “weakest effect”; the “effect of the added sugar” value was “dampened the gene regulatory response of Core 1”; the ECE1 transcription result is “downregulating ECE1”; the YWP1 transcription result is “transcriptionally upregulated YWP1”.

Regarding `CO[C@H]1O[C@H](CO)[C@H](O)[C@H](O[C@@H]2O[C@H](CO)[C@H](O)[C@H](O)[C@H]2O[C@@H]2O[C@@H](C)[C@@H](O)[C@@H](O)[C@@H]2O)[C@H]1NC(C)=O` [Core 1+fucose, Methyl α-L-fucopyranosyl-(1→2)-β-D-galactopyranosyl-(1→3)-2-acetamido-2-deoxy-α-D-galactopyranoside], the “filamentation, synthetic glycan structures” value in test [2] was “most potently blocked filamentation”. Besides, in test [3], the “suppression” value was “strongest suppression”; the “effect of the added sugar” value is listed as “did not measurably alter”; the ECE1 transcription result is “downregulating ECE1”; the YWP1 transcription result is listed as “transcriptionally upregulated YWP1”.

For the compound `CO[C@H]1O[C@H](CO[C@@H]2O[C@H](CO)[C@@H](O)[C@H](O)[C@H]2NC(C)=O)[C@H](O)[C@H](O[C@@H]2O[C@H](CO)[C@H](O)[C@H](O)[C@H]2O[C@@H]2O[C@@H](C)[C@@H](O)[C@@H](O)[C@@H]2O)[C@H]1NC(C)=O` [Core 2+fucose, Methyl α-L-fucopyranosyl-(1→2)-β-D-galactopyranosyl-(1→3)-[2-acetamido-2-deoxy-β-D-glucopyranosyl-(1→6)]-2-acetamido-2-deoxy-α-D-galactopyranoside], in test [3], the “effect of the added sugar” value was “did not measurably alter”; the ECE1 transcription result was “downregulating ECE1”; the YWP1 transcription entry is on record as “transcriptionally upregulated YWP1”.
